According to US12655175B2, “C17, C20, and C21 substituted neuroactive steroids and their methods of use” (Sage Therapeutics, LLC, priority 2016, dated 2026):

The molecules below were run against GABAA receptor (assay: Steroid inhibition of [35S]-TBPS binding). Details: rat brain cortical membranes, 3 nM [35S]-TBPS, in the presence of 5 mM GABA.
Experimental: Steroid Inhibition of TBPS Binding
Briefly, cortices are rapidly removed following decapitation of carbon dioxide-anesthetized Sprague-Dawley rats ([…]). The cortices are homogenized in 10 volumes of ice-cold 0.32 M sucrose using a glass/teflon homogenizer and centrifuged at 1500×g for 10 min at 4° C. The resultant supernatants are centrifuged at 10,000×g for 20 min at 4° C. to obtain the P2 pellets. The P2 pellets are resuspended in 200 mM NaCl/50 mM Na—K phosphate pH 7.4 buffer and centrifuged at 10,000×g for 10 min at 4° C. This washing procedure is repeated twice and the pellets are resuspended in 10 volumes of buffer. Aliquots ([…]) of the membrane suspensions are incubated with 3 nM [^35S]-TBPS and […] aliquots of test drug dissolved in dimethyl sulfoxide (DMSO) (final 0.5%) in the presence of 5 mM GABA. The incubation is brought to a final volume of 1.0 mL with buffer. […] Following a 90 min incubation at room temp, the assays are terminated by filtration through glass fiber filters (Schleicher and Schuell No. 32) using a cell harvester (Brandel) and rinsed three times with ice-cold buffer. Filter bound radioactivity is measured by liquid scintillation spectrometry. Non-linear curve fitting of the overall data for each drug averaged for each concentration is done using Prism (GraphPad).
Various compounds are or can be screened to determine their potential as modulators of [^35S]-TBPS binding in vitro. These assays are or can be performed in accordance with the above discussed procedures.

SMILES	IC50
COC(=O)N(C)[C@H]1CC[C@H]2[C@@H]3CC[C@H]4C[C@](C)(O)CC[C@]4(C)[C@H]3CC[C@]12C [Compound 99]	> 500 nM
C[C@@]1(O)CC[C@H]2[C@H](CC[C@@H]3[C@@H]2CC[C@]2(C)[C@@H](C(=O)N4CC[C@@H](c5ccccc5)C4)CC[C@@H]32)C1 [Compound 30]	100 to 500 nM
C[C@@]1(O)CC[C@H]2[C@H](CC[C@@H]3[C@@H]2CC[C@]2(C)[C@@H](c4cccc(C#N)c4)CC[C@@H]32)C1 [Compound 105]	10 to 50 nM
CC[C@H](NC(=O)[C@H]1CC[C@H]2[C@@H]3CC[C@@H]4C[C@](C)(O)CC[C@@H]4[C@H]3CC[C@]12C)c1ccc(F)cc1 (single isomer, unassigned) [Compound 33]	100 to 500 nM
COC[C@]12CC[C@](O)(C(F)(F)F)C[C@H]1CC[C@H]1[C@@H]3CC[C@H](C(=O)NC4CCCCC4)[C@@]3(C)CC[C@@H]12 [Compound 80]	> 500 nM
CCOC[C@@]1(O)CC[C@H]2[C@H](CC[C@@H]3[C@@H]2CC[C@]2(C)[C@@H](C(=O)N(C)[C@H](C)c4ccc(F)cc4)CC[C@@H]32)C1 [Compound 61]	100 to 500 nM
Cc1ccc([C@H]2CC[C@H]3[C@@H]4CC[C@@H]5C[C@](C)(O)CC[C@@H]5[C@H]4CC[C@]23C)cc1 [Compound 102]	100 to 500 nM
Cn1cc([C@H]2CC[C@H]3[C@@H]4CC[C@@H]5C[C@](C)(O)CC[C@@H]5[C@H]4CC[C@]23C)cn1 [Compound 111]	50 to 100 nM
C[C@@]1(O)CC[C@@]2(C)[C@@H](CC[C@@H]3[C@@H]2CC[C@]2(C)[C@@H](Nc4ccccc4F)CC[C@@H]32)C1 [Compound 91]	> 500 nM
CO[C@H]1C[C@]2(C)[C@@H]([N+](=O)[O-])CC[C@H]2[C@@H]2CC[C@H]3C[C@H](O)[C@@H](OC)C[C@]3(C)[C@H]21 [Compound 119]	10 to 50 nM
CCOC[C@@]1(O)CC[C@H]2[C@H](CC[C@@H]3[C@@H]2CC[C@]2(C)[C@@H](C(=O)N4CCCCC4)CC[C@@H]32)C1 [Compound 50]	100 to 500 nM
C[C@@H](c1ccc(C#N)cc1)N(C)C(=O)[C@H]1CC[C@H]2[C@@H]3CC[C@@H]4C[C@@](O)(C(F)(F)F)CC[C@@H]4[C@H]3CC[C@]12C [Compound 70]	100 to 500 nM
CN(CC(=O)[C@H]1CC[C@H]2[C@@H]3CC[C@H]4C[C@@](O)(C(F)(F)F)CC[C@]4(C)[C@H]3CC[C@]12C)c1ccccc1 [Compound 74]	> 500 nM
C[C@@]1(O)CC[C@@]2(C)[C@@H](CC[C@@H]3[C@@H]2CC[C@]2(C)[C@@H](Nc4ccccc4)CC[C@@H]32)C1 [Compound 87]	100 to 500 nM
C[C@@]1(O)CC[C@H]2[C@H](CC[C@@H]3[C@@H]2CC[C@]2(C)[C@@H](C(=O)N4CCCCCC4)CC[C@@H]32)C1 [Compound 23]	100 to 500 nM
C[C@H](c1ccccc1)N(C)C(=O)[C@H]1CC[C@H]2[C@@H]3CC[C@@H]4C[C@](C)(O)CC[C@@H]4[C@H]3CC[C@]12C [Compound 32]	10 to 50 nM
CN(Cc1ccncc1)C(=O)[C@H]1CC[C@H]2[C@@H]3CC[C@@H]4C[C@](C)(O)CC[C@@H]4[C@H]3CC[C@]12C [Compound 13]	100 to 500 nM
C[C@@]1(O)CC[C@H]2[C@H](CC[C@@H]3[C@@H]2CC[C@]2(C)[C@@H](C(=O)N4CC[C@H](c5ccccc5)C4)CC[C@@H]32)C1 [Compound 31]	50 to 100 nM
C[C@H](c1ccc(C#N)cc1)N(C)C(=O)[C@H]1CC[C@H]2[C@@H]3CC[C@@H]4C[C@@](O)(C(F)(F)F)CC[C@@H]4[C@H]3CC[C@]12C [Compound 69]	100 to 500 nM
CCOC[C@]12CC[C@@](C)(O)C[C@@H]1CC[C@H]1[C@@H]3CC[C@H](C(=O)CNc4ccccc4)[C@@]3(C)CC[C@@H]12 [Compound 66]	50 to 100 nM
CC1(O)CC[C@H]2[C@@H]3CC[C@@H]4C[C@](C)(O)CC[C@@H]4[C@H]3CC[C@@]21C (some centres unmarked) [Compound 126]	> 500 nM
C[C@@]1(O)CC[C@H]2[C@H](CC[C@@H]3[C@@H]2CC[C@]2(C)[C@@H](C(=O)Nc4ccccc4)CC[C@@H]32)C1 [Compound 3]	< 10 nM

SMILES	IC50
C[C@@]1(O)CC[C@H]2[C@H](CC[C@@H]3[C@@H]2CC[C@]2(C)[C@@H](c4cccnc4)CC[C@@H]32)C1 [Compound 106]	10 to 50 nM
C[C@@]1(O)CC[C@H]2[C@H](CC[C@@H]3[C@@H]2CC[C@]2(C)[C@@H](c4ccc(C#N)cc4)CC[C@@H]32)C1 [Compound 110]	10 to 50 nM
C[C@@]1(O)CC[C@H]2[C@H](CC[C@@H]3[C@@H]2CC[C@]2(C)[C@@H](C4CCCC4)CC[C@@H]32)C1 [Compound 109]	> 500 nM
CCOC[C@@]1(O)CC[C@H]2[C@H](CC[C@@H]3[C@@H]2CC[C@]2(C)[C@@H](C(=O)N(C)[C@H](C)c4ccc(C#N)cc4)CC[C@@H]32)C1 [Compound 49]	50 to 100 nM
CN(Cc1ccccc1)C(=O)[C@H]1CC[C@H]2[C@@H]3CC[C@@H]4C[C@](C)(O)CC[C@@H]4[C@H]3CC[C@]12C [Compound 4]	10 to 50 nM
C[C@@]1(O)CC[C@H]2[C@H](CC[C@@H]3[C@@H]2CC[C@]2(C)[C@@H](C(=O)NC4CCCCC4)CC[C@@H]32)C1 [Compound 8]	50 to 100 nM
C[C@@]1(O)CC[C@@]2(C)[C@@H](CC[C@@H]3[C@@H]2CC[C@]2(C)[C@@H](N)CC[C@@H]32)C1 [Compound 93]	> 500 nM
CN(CC(=O)[C@H]1CC[C@H]2[C@@H]3CC[C@@H]4C[C@](C)(O)CC[C@@H]4[C@H]3CC[C@]12C)c1ccc(F)cc1 [Compound 43]	10 to 50 nM
C[C@@]1(O)CC[C@H]2[C@H](CC[C@@H]3[C@@H]2CC[C@]2(C)[C@@H](C(=O)CNc4ccccc4)CC[C@@H]32)C1 [Compound 38]	< 10 nM
CN(CC1CCCCC1)C(=O)[C@H]1CC[C@H]2[C@@H]3CC[C@@H]4C[C@](C)(O)CC[C@@H]4[C@H]3CC[C@]12C [Compound 26]	100 to 500 nM
CCOC[C@]12CC[C@@](C)(O)C[C@@H]1CC[C@H]1[C@@H]3CC[C@H](C(=O)CN(C)c4ccccc4)[C@@]3(C)CC[C@@H]12 [Compound 65]	100 to 500 nM
C[C@@]1(O)CC[C@H]2[C@H](CC[C@@H]3[C@@H]2CC[C@]2(C)[C@@H](c4ccccn4)CC[C@@H]32)C1 [Compound 108]	100 to 500 nM
CN(CCc1ccccc1)C(=O)[C@H]1CC[C@H]2[C@@H]3CC[C@@H]4C[C@](C)(O)CC[C@@H]4[C@H]3CC[C@]12C [Compound 18]	50 to 100 nM
CN(CC1CCOCC1)C(=O)[C@H]1CC[C@H]2[C@@H]3CC[C@@H]4C[C@](C)(O)CC[C@@H]4[C@H]3CC[C@]12C [Compound 14]	> 500 nM
CN(c1ccccc1)[C@H]1CC[C@H]2[C@@H]3CC[C@H]4C[C@](C)(O)CC[C@]4(C)[C@H]3CC[C@]12C [Compound 88]	> 500 nM
CCOC[C@@]1(O)CC[C@H]2[C@H](CC[C@@H]3[C@@H]2CC[C@]2(C)[C@@H](C(=O)N(C)[C@H](CC)c4ccc(F)cc4)CC[C@@H]32)C1 [Compound 56]	100 to 500 nM
COC[C@]12CC[C@](O)(C(F)(F)F)C[C@H]1CC[C@H]1[C@@H]3CC[C@H](C(=O)CNc4ccccc4)[C@@]3(C)CC[C@@H]12 [Compound 77]	10 to 50 nM
CN(C(=O)[C@H]1CC[C@H]2[C@@H]3CC[C@@H]4C[C@](C)(O)CC[C@@H]4[C@H]3CC[C@]12C)C1CCOCC1 [Compound 10]	100 to 500 nM
CCOC[C@@]1(O)CC[C@H]2[C@H](CC[C@@H]3[C@@H]2CC[C@]2(C)[C@@H](C(=O)N4CCC[C@H]4c4ncco4)CC[C@@H]32)C1 [Compound 55]	> 500 nM
CC[C@@H](NC(=O)[C@H]1CC[C@H]2[C@@H]3CC[C@@H]4C[C@](C)(O)CC[C@@H]4[C@H]3CC[C@]12C)c1ccc(F)cc1 (single isomer, unassigned) [Compound 34]	100 to 500 nM
CN(CC(=O)[C@H]1CC[C@H]2[C@@H]3CC[C@@H]4C[C@](C)(O)CC[C@@H]4[C@H]3CC[C@]12C)c1ccccc1 [Compound 39]	50 to 100 nM
C[C@@]1(O)CC[C@H]2[C@H](CC[C@@H]3[C@@H]2CC[C@]2(C)[C@@H](C(=O)NCc4ccccc4)CC[C@@H]32)C1 [Compound 1]	50 to 100 nM
